Assay results published in patent publication US20250360148A1, “SOLID DISPERSIONS OF PSILOCYBIN” (Cybin IRL Limited, priority 2022, published 2025).
Marks after values point to notes of the source that are not given here.

What was measured:
[1] = XRPD characterization of freeze-dried solid dispersions, physical mixtures and starting material; format: physicochemical; details: as prepared; solid form of psilocybin (PY) in freeze-dried dispersion, physical mixture or starting material
Protocol: The samples were prepared in silicon low background holders using light manual pressure to keep the sample surface flat and level with the reference surface of the sample holder. The single crystal Si low background holder has a circular recess (10 mm diameter and about 0.2 mm depth) that holds the sample.
The Rigaku Smart-Lab diffraction system used was configured for Bragg-Brentano reflection geometry using a line source X-ray beam. The Bragg-Brentano geometry was controlled by passive divergence and receiving slits with the sample itself acting as the focusing component for the optics. The figures were created using PlotMon V2.1.1.0.
High-resolution XRPD analysis was performed using Rigaku Smart-Lab diffraction system configured for Debye-Scherrer transmission geometry. The Debye-Scherrer convergent beam geometry utilizes a curved x-ray mirror to focus the incident beam through the sample and onto the detector plane. The axial divergence of the X-ray beam was controlled by 5.0° Soller slits in both the incident and diffracted beam paths.
Freeze-dried solid dispersions of Examples 1-5, and corresponding Reference Examples, were characterized using X-ray powder diffraction (XRPD).

[2] = Characterization and 40° C. closed-vial stability of spray dried solid dispersions (XRPD, mDSC, TGA); format: physicochemical; details: t = 0, spray dried
Protocol: X-ray power diffraction (XRPD): XRPD patterns were collected on a Bruker AXS D2 diffractometer using Cu Kα radiation (30 kV, 10 mA), […], using a LynxEye detector from 5-42 °2θ.
The details of the data collection are: • Angular range: 5 to 42 °2θ • Step size: 0.024° 2θ • Collection time: 0.1 seconds per step.
Samples were run under ambient conditions and prepared as flat plate specimens using powder without grinding. Approximately 1-2 mg of the sample was lightly pressed on a silicon wafer to obtain a flat surface.
Modulated differential scanning calorimetry (mDSC): TOPEM® is a temperature modulated DSC method which differs from conventional DSC in allowing the total heat flow to be separated into reversing and non-reversing heat flow components. Such techniques help distinguish between processes or transitions that overlap or lie very close to one another. The glass transition temperature (Tg) was determined from the reversible heatflow component.
TOPEM® DSC data were collected on a Mettler DSC 3+ equipped with a 34 position auto-sampler. The instrument was calibrated for energy and temperature using certified indium. Typically, 3-5 mg of each sample, in a pin-holed aluminium pan, was heated at 2 K·min^−1 from 30° C. to 220° C. with a pulse height of 0.64 K and a pulse width 15-30 sec. A nitrogen purge at 50 mL·min^−1 was maintained over the sample. […]

[3] = cited from earlier work

CN(C)CCc1c[nH]c2cccc(OP(=O)(O)O)c12 [Crystalline PY starting material, 3-(2-(dimethylamino)ethyl)-1H-indol-4-yl dihydrogen phosphate]
XRPD Results [1]: crystalline PY (methanol solvate)^a

CN(C)CCc1c[nH]c2cccc(OP(=O)(O)O)c12 [Psilocybin (PY), 3-(2-(dimethylamino)ethyl)-1H-indol-4-yl dihydrogen phosphate]
XRPD [2]: Amorphous | Tg ([2]; mDSC): 161 °C

CN(C)CCc1c[nH]c2cccc(OP(=O)(O)O)c12 [amorphous psilocybin]
Tg (midpoint) ([3]; reported by Greenan et al.): 163 °C | physical stability of the amorphous form without polymer ([3]; variety of stress conditions, Greenan et al.): known to crystallize
